According to PubChem BioAssay (NCI):
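Protocol summary: plate cells (96-well), add compound at 5 concentrations, incubate 48 h, interpolate endpoints linearly. GI50 = concentration required for 50% inhibition of growth. TGI marks complete inhibition of growth.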

What was measured:
Test in all cases: DTP human tumour cell line panel, 48 h
NCI-H23 lung = test system: NCI-H23 lung
NCI-H460 lung = test system: NCI-H460 lung
IGROV1 ovarian = test system: IGROV1 ovarian
SK-OV-3 ovarian = test system: SK-OV-3 ovarian
UACC-257 melanoma = test system: UACC-257 melanoma
HCT-15 colon = test system: HCT-15 colon
NCI-H522 lung = test system: NCI-H522 lung
HT29 colon = test system: HT29 colon
MALME-3M melanoma = test system: MALME-3M melanoma
OVCAR-5 ovarian = test system: OVCAR-5 ovarian
OVCAR-8 ovarian = test system: OVCAR-8 ovarian
UO-31 renal = test system: UO-31 renal
SNB-19 CNS = test system: SNB-19 CNS
MDA-MB-435 = test system: MDA-MB-435
K-562 leukemia = test system: K-562 leukemia
TK-10 renal = test system: TK-10 renal
T-47D breast = test system: T-47D breast
NCI/ADR-RES ovarian = test system: NCI/ADR-RES ovarian
DU-145 prostate = test system: DU-145 prostate
MOLT-4 leukemia = test system: MOLT-4 leukemia
SK-MEL-28 melanoma = test system: SK-MEL-28 melanoma
SW-620 colon = test system: SW-620 colon
U251 CNS = test system: U251 CNS
BT-549 breast = test system: BT-549 breast
SF-295 CNS = test system: SF-295 CNS
SK-MEL-5 melanoma = test system: SK-MEL-5 melanoma
OVCAR-4 ovarian = test system: OVCAR-4 ovarian
CAKI-1 renal = test system: CAKI-1 renal
MDA-MB-231 breast = test system: MDA-MB-231 breast
LOX IMVI melanoma = test system: LOX IMVI melanoma
KM12 colon = test system: KM12 colon
SN12C renal = test system: SN12C renal
HCT-116 colon = test system: HCT-116 colon
RXF 393 renal = test system: RXF 393 renal
PC-3 prostate = test system: PC-3 prostate
RPMI-8226 leukemia = test system: RPMI-8226 leukemia
A498 renal = test system: A498 renal
COLO 205 colon = test system: COLO 205 colon
SR leukemia = test system: SR leukemia
SF-539 CNS = test system: SF-539 CNS
ACHN renal = test system: ACHN renal
M14 melanoma = test system: M14 melanoma
MCF7 breast = test system: MCF7 breast
HOP-62 NSCLC = test system: HOP-62 NSCLC
OVCAR-3 ovarian = test system: OVCAR-3 ovarian
SK-MEL-2 melanoma = test system: SK-MEL-2 melanoma
HS 578T breast = test system: HS 578T breast
HOP-92 NSCLC = test system: HOP-92 NSCLC
EKVX NSCLC = test system: EKVX NSCLC
A549 NSCLC = test system: A549 NSCLC
786-0 renal = test system: 786-0 renal
HL-60(TB) leukemia = test system: HL-60(TB) leukemia
NCI-H226 lung = test system: NCI-H226 lung
SNB-75 CNS = test system: SNB-75 CNS
SF-268 CNS = test system: SF-268 CNS
HCC-2998 colon = test system: HCC-2998 colon
CCRF-CEM leukemia = test system: CCRF-CEM leukemia

Cc1sc2nc3c4ccccc4c(NCCCN(C)C)nn3c(=O)c2c1C
GI50 (NCI-H23 lung): 8.45 µM
TGI (NCI-H23 lung): 23 µM
GI50 (NCI-H460 lung): 1.08 µM
TGI (NCI-H460 lung): 5.35 µM
GI50 (IGROV1 ovarian): 5.3 µM
TGI (IGROV1 ovarian): 24.6 µM
GI50 (SK-OV-3 ovarian): 13.4 µM
TGI (SK-OV-3 ovarian): 26.3 µM
GI50 (UACC-257 melanoma): 2.22 µM
TGI (UACC-257 melanoma): 4.79 µM
GI50 (HCT-15 colon): 6.73 µM
TGI (HCT-15 colon): 20.8 µM
GI50 (NCI-H522 lung): 12.4 µM
TGI (NCI-H522 lung): 28.8 µM
GI50 (HT29 colon): 1.52 µM
TGI (HT29 colon): 3.36 µM
GI50 (MALME-3M melanoma): 1.97 µM
TGI (MALME-3M melanoma): 4.96 µM
GI50 (OVCAR-5 ovarian): 14.2 µM
TGI (OVCAR-5 ovarian): 28.5 µM
GI50 (OVCAR-8 ovarian): 11 µM
TGI (OVCAR-8 ovarian): 27.9 µM
GI50 (UO-31 renal): 3.13 µM
TGI (UO-31 renal): 16.7 µM
GI50 (SNB-19 CNS): 15.9 µM
TGI (SNB-19 CNS): 29.5 µM
GI50 (MDA-MB-435): 1.79 µM
TGI (MDA-MB-435): 3.74 µM
GI50 (K-562 leukemia): 1.93 µM
TGI (K-562 leukemia): 3.9 µM
GI50 (TK-10 renal): 13.6 µM
TGI (TK-10 renal): 28.9 µM
GI50 (T-47D breast): 12.7 µM
TGI (T-47D breast): 26.1 µM
GI50 (NCI/ADR-RES ovarian): 10.7 µM
TGI (NCI/ADR-RES ovarian): 24.8 µM
GI50 (DU-145 prostate): 4.4 µM
TGI (DU-145 prostate): 14.5 µM
GI50 (MOLT-4 leukemia): 0.782 µM
TGI (MOLT-4 leukemia): 3.38 µM
GI50 (SK-MEL-28 melanoma): 1.73 µM
TGI (SK-MEL-28 melanoma): 3.21 µM
GI50 (SW-620 colon): 1.67 µM
TGI (SW-620 colon): 4.55 µM
GI50 (U251 CNS): 6.66 µM
TGI (U251 CNS): 20 µM
GI50 (BT-549 breast): 11.7 µM
TGI (BT-549 breast): 26.9 µM
GI50 (SF-295 CNS): 8.25 µM
TGI (SF-295 CNS): 26.5 µM
GI50 (SK-MEL-5 melanoma): 3.01 µM
TGI (SK-MEL-5 melanoma): 9.8 µM
GI50 (OVCAR-4 ovarian): 12.1 µM
TGI (OVCAR-4 ovarian): 24.9 µM
GI50 (CAKI-1 renal): 8.87 µM
TGI (CAKI-1 renal): 23.5 µM
GI50 (MDA-MB-231 breast): 2.15 µM
TGI (MDA-MB-231 breast): 7.53 µM
GI50 (LOX IMVI melanoma): 2 µM
TGI (LOX IMVI melanoma): 6.85 µM
GI50 (KM12 colon): 4.84 µM
TGI (KM12 colon): 17.7 µM
GI50 (SN12C renal): 5.14 µM
TGI (SN12C renal): 21.7 µM
GI50 (HCT-116 colon): 4.03 µM
TGI (HCT-116 colon): 12.7 µM
GI50 (RXF 393 renal): 5.2 µM
TGI (RXF 393 renal): 19.8 µM
GI50 (PC-3 prostate): 11.5 µM
TGI (PC-3 prostate): 24.2 µM
GI50 (RPMI-8226 leukemia): 4.8 µM
TGI (RPMI-8226 leukemia): 11.7 µM
GI50 (A498 renal): 4.49 µM
TGI (A498 renal): 20.2 µM
GI50 (COLO 205 colon): 1.43 µM
TGI (COLO 205 colon): 2.79 µM
GI50 (SR leukemia): 1.33 µM
TGI (SR leukemia): 3.52 µM
GI50 (SF-539 CNS): 1.65 µM
TGI (SF-539 CNS): 3.04 µM
GI50 (ACHN renal): 6.95 µM
TGI (ACHN renal): 20.4 µM
GI50 (M14 melanoma): 1.77 µM
TGI (M14 melanoma): 3.22 µM
GI50 (MCF7 breast): 1.43 µM
TGI (MCF7 breast): 5.63 µM
GI50 (HOP-62 NSCLC): 12.3 µM
TGI (HOP-62 NSCLC): 25.3 µM
GI50 (OVCAR-3 ovarian): 11.3 µM
TGI (OVCAR-3 ovarian): 24.3 µM
GI50 (SK-MEL-2 melanoma): 20 µM
TGI (SK-MEL-2 melanoma): 39.7 µM
GI50 (HS 578T breast): 3.15 µM
TGI (HS 578T breast): 17.5 µM
GI50 (HOP-92 NSCLC): 5.57 µM
TGI (HOP-92 NSCLC): 20 µM
GI50 (EKVX NSCLC): 15.7 µM
TGI (EKVX NSCLC): 35.8 µM
GI50 (A549 NSCLC): 2.52 µM
TGI (A549 NSCLC): 20.4 µM
GI50 (786-0 renal): 9.14 µM
TGI (786-0 renal): 21.9 µM
GI50 (HL-60(TB) leukemia): 9.98 µM
TGI (HL-60(TB) leukemia): 25.8 µM
GI50 (NCI-H226 lung): 5.26 µM
TGI (NCI-H226 lung): 23.1 µM
GI50 (SNB-75 CNS): 3.46 µM
TGI (SNB-75 CNS): 16.4 µM
GI50 (SF-268 CNS): 9.66 µM
TGI (SF-268 CNS): 24.1 µM
GI50 (HCC-2998 colon): 7.88 µM
TGI (HCC-2998 colon): 20.7 µM
GI50 (CCRF-CEM leukemia): 6.13 µM
TGI (CCRF-CEM leukemia): 17.2 µM
